This assay has as its system BDF1 mice, P388 leukemia ip, median survival T/C. The assay is described as follows: NCI In Vivo Anticancer Drug Screen. Data for tumor model P388 Leukemia (intraperitoneal) in B6D2F1 (BDF1) mice. As to conditions: endpoint: median survival time, higher = longer survival. In short, it runs like this: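 Read-out is survival of treated animals expressed relative to the vehicle group, as a T/C ratio.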

[1] abbreviates: dose: 100.0 mg/kg/injection, schedule: Q01DX009 (ip), vehicle: saline with Tween-80.
Where [2] appears, read: dose: 200.0 mg/kg/injection, schedule: Q01DX009 (ip), vehicle: saline with Tween-80.
[3] abbreviates: dose: 400.0 mg/kg/injection, schedule: Q01DX009 (ip), vehicle: saline with Tween-80.
The mark [4] stands for this setting: dose: 50.0 mg/kg/injection, schedule: Q01DX009 (ip), vehicle: saline with Tween-80.
Where [5] appears, read: dose: 25.0 mg/kg/injection, schedule: Q01DX009 (ip), vehicle: saline with Tween-80.

“And” between values parts separate entries of the source, which are not always exact repeats. Equal values may be shown once. Toxic doses and inconclusive results are not listed.

Take `CCOC(=O)CC(C)(N)NC(N)=O` (stereo not given): the T/C by setting is: (dose: 100.0 mg/kg/injection, schedule: Q01DX001 (ip), vehicle: saline with Tween-80) 110 % of control; under setting [1], 115 % of control; (dose: 100.0 mg/kg/injection, schedule: Q04DX003 (ip), vehicle: alcohol) 110 % of control; (dose: 200.0 mg/kg/injection, schedule: Q01DX001 (ip), vehicle: saline with Tween-80) 95 % of control; under setting [2], 105 % of control; (dose: 200.0 mg/kg/injection, schedule: Q04DX003 (ip), vehicle: alcohol) 105 % of control. The T/C reads like this: (dose: 400.0 mg/kg/injection, schedule: Q01DX001 (ip), vehicle: saline with Tween-80) 110 % of control; under setting [3], 105 % of control; (dose: 400.0 mg/kg/injection, schedule: Q04DX003 (ip), vehicle: alcohol) 110 % of control.
Turning to `O=C(O)CNC(=O)c1ccc([N+](=O)[O-])cc1`, the T/C was 90 % of control under setting [1], 90 % of control under setting [2] and 86 % of control under setting [3].
As to `COc1cccc(CCCC(=O)C(C)(C)S(C)=O)c1` (stereo not given), the T/C reads like this: under setting [4], 103 % of control; under setting [1], 95 % of control; under setting [2], 103 % of control.
In the case of `CCNC(C)(C)C(SS(=O)(=O)O)c1ccc(Cl)s1` (stereo not given), the T/C is 103 % of control under setting [5]; 95 % of control and 121 % of control under setting [4]; 103 % of control (dose: 75.0 mg/kg/injection, schedule: Q01DX009 (ip), vehicle: saline with Tween-80); 102 % of control under setting [1]; 95 % of control (dose: 100.0 mg/kg/injection, schedule: Q04DX003 (ip), vehicle: saline with Tween-80); 102 % of control under setting [2]. The T/C by setting is: (dose: 200.0 mg/kg/injection, schedule: Q04DX003 (ip), vehicle: saline with Tween-80) 94 % of control; (dose: 300.0 mg/kg/injection, schedule: Q01DX009 (ip), vehicle: saline with Tween-80) 101 % of control.
Regarding `CC[N+](CC)(CC)CCCCCCCC[N+](CC)(CC)CC`, the T/C is, setting by setting: (dose: 0.25 mg/kg/injection, schedule: Q01DX009 (ip), vehicle: water) 115 % of control; (dose: 0.5 mg/kg/injection, schedule: Q01DX009 (ip), vehicle: water) 92 % of control; (dose: 0.5 mg/kg/injection, schedule: Q04DX003 (ip), vehicle: water) 100 % of control; (dose: 0.78 mg/kg/injection, schedule: Q04DX003 (ip), vehicle: water) 112 % of control; (dose: 1.0 mg/kg/injection, schedule: Q01DX009 (ip), vehicle: water) 105 % of control and 106 % of control; (dose: 1.0 mg/kg/injection, schedule: Q04DX003 (ip), vehicle: water) 88 % of control. Besides, the T/C is, setting by setting: (dose: 1.56 mg/kg/injection, schedule: Q04DX003 (ip), vehicle: water) 112 % of control; (dose: 2.0 mg/kg/injection, schedule: Q01DX009 (ip), vehicle: water) 106 % of control; (dose: 3.12 mg/kg/injection, schedule: Q04DX003 (ip), vehicle: water) 112 % of control.
Turning to `O=C1NC(c2ccccc2)(c2ccccc2)C(=O)N1CCN(CCCl)CCCl`, the T/C runs as follows: (dose: 6.1 mg/kg/injection, schedule: Q04DX003 (ip), vehicle: saline with Tween-80) 100 % of control; (dose: 14.0 mg/kg/injection, schedule: Q04DX003 (ip), vehicle: saline) 150 % of control; (dose: 21.0 mg/kg/injection, schedule: Q04DX003 (ip), vehicle: saline) 190 % of control; (dose: 33.0 mg/kg/injection, schedule: Q04DX003 (ip), vehicle: saline with Tween-80) 154 % of control and 168 % of control; (dose: 50.0 mg/kg/injection, schedule: Q04DX003 (ip), vehicle: saline with Tween-80) 181 % of control and 200 % of control.
For the compound `O=Cc1c[nH]c(=O)[nH]c1=O`, the T/C by setting is: (dose: 100.0 mg/kg/injection, schedule: Q04DX003 (ip), vehicle: saline) 91 % of control; (dose: 200.0 mg/kg/injection, schedule: Q04DX003 (ip), vehicle: saline) 99 % of control; (dose: 400.0 mg/kg/injection, schedule: Q04DX003 (ip), vehicle: saline) 88 % of control.
In the case of `C=CC(=O)[O][Pb]([CH3])([CH3])[CH3]`, the T/C runs as follows: (dose: 0.75 mg/kg/injection, schedule: Q01DX009 (ip), vehicle: saline) 98 % of control; (dose: 1.5 mg/kg/injection, schedule: Q01DX009 (ip), vehicle: saline) 96 % of control.
On to `OC(Cc1cc(CC(O)(C(F)(F)F)C(F)(F)F)ncn1)(C(F)(F)F)C(F)(F)F`, for which the T/C was 95 % of control under setting [1] and 90 % of control under setting [2].
In the case of `CC[C@](C)(O)C(=O)O[C@H]1C(=O)O[C@@H]2C[C@H]3C(C)=CC(=O)[C@@H](O)[C@]3(C)[C@H]3[C@@]4(O)OC[C@]32[C@@H]1[C@@H](C)[C@H]4O`, the T/C runs as follows: (dose: 0.06 mg/kg/injection, schedule: Q01DX009 (ip), vehicle: saline with Tween-80) 100 % of control; (dose: 0.07 mg/kg/injection, schedule: Q01DX010 (ip), vehicle: saline) 105 % of control; (dose: 0.12 mg/kg/injection, schedule: Q01DX009 (ip), vehicle: saline with Tween-80) 100 % of control; (dose: 0.12 mg/kg/injection, schedule: Q01DX009 (ip), vehicle: saline) 100 % of control; (dose: 0.15 mg/kg/injection, schedule: Q01DX010 (ip), vehicle: saline) 95 % of control; (dose: 0.2 mg/kg/injection, schedule: Q01DX010 (ip), vehicle: saline) 100 % of control. Moreover, the T/C is 108 % of control (dose: 0.25 mg/kg/injection, schedule: Q01DX009 (ip), vehicle: saline); 177 % of control (dose: 0.25 mg/kg/injection, schedule: Q01DX010 (ip), vehicle: steriod suspending solution); 109 % of control and 110 % of control (dose: 0.3 mg/kg/injection, schedule: Q01DX010 (ip), vehicle: saline); 104 % of control (dose: 0.44 mg/kg/injection, schedule: Q01DX010 (ip), vehicle: saline); 104 % of control (dose: 0.5 mg/kg/injection, schedule: Q01DX009 (ip), vehicle: saline); 231 % of control (dose: 0.5 mg/kg/injection, schedule: Q01DX010 (ip), vehicle: steriod suspending solution). The T/C reads like this: (dose: 0.51 mg/kg/injection, schedule: Q01DX009 (ip), vehicle: saline with Tween-80) 161 % of control; (dose: 0.6 mg/kg/injection, schedule: Q01DX010 (ip), vehicle: saline) 150 % of control; (dose: 0.64 mg/kg/injection, schedule: Q01DX009 (ip), vehicle: saline with Tween-80) 171 % of control; (dose: 0.66 mg/kg/injection, schedule: Q01DX010 (ip), vehicle: saline) 122 % of control; (dose: 1.0 mg/kg/injection, schedule: Q01DX009 (ip), vehicle: saline + alcohol) 87 % of control.
As for `COC(=O)c1ccc(CSc2ccccc2NC(=S)Nc2cccc(C(F)(F)F)c2)o1`, the T/C under setting [2] is 90 % of control.
On to `NC1=C(N2CC2)C(=O)C(N)=C(N2CC2)C1=O`, for which, where the note is “dose: 100.0 micrograms/kg/injection, schedule: Q01DX009 (ip), vehicle: saline”, the T/C is 178 % of control.
Take `Cc1ccc(C(=O)CO)cc1`: the T/C runs as follows: under setting [4], 98 % of control; under setting [1], 102 % of control; under setting [2], 98 % of control.
In the case of `Cc1ccc(NC(=O)CO)cc1`, the T/C by setting is: (dose: 50.0 mg/kg/injection, schedule: Q01DX009 (ip), vehicle: Klucel (hydroxypropylcellulose) (HPC)) 102 % of control; (dose: 100.0 mg/kg/injection, schedule: Q01DX009 (ip), vehicle: Klucel (hydroxypropylcellulose) (HPC)) 97 % of control; (dose: 200.0 mg/kg/injection, schedule: Q01DX009 (ip), vehicle: Klucel (hydroxypropylcellulose) (HPC)) 104 % of control.
Consider `CCCCCCCCCCCCCCCCCCNC(=O)Nc1ccc(C)cc1C`, for which the T/C is, setting by setting: (dose: 100.0 mg/kg/injection, schedule: Q04DX003 (ip), vehicle: saline + alcohol) 91 % of control; (dose: 200.0 mg/kg/injection, schedule: Q04DX003 (ip), vehicle: saline + alcohol) 108 % of control; (dose: 400.0 mg/kg/injection, schedule: Q04DX003 (ip), vehicle: saline + alcohol) 108 % of control.
In the case of `CC(=O)c1ccc2ccccc2c1OC(=O)c1cccnc1`, the T/C runs as follows: (dose: 50.0 mg/kg/injection, schedule: Q01DX009 (ip), vehicle: other) 100 % of control; (dose: 100.0 mg/kg/injection, schedule: Q01DX009 (ip), vehicle: other) 109 % of control; (dose: 200.0 mg/kg/injection, schedule: Q01DX009 (ip), vehicle: other) 118 % of control.
In the case of `NC(=S)N/N=C/c1ccc(OC(=O)COc2ccccc2)cn1`, the T/C runs as follows: (dose: 1.56 mg/kg/injection, schedule: Q01DX009 (ip), vehicle: saline with Tween-80) 124 % of control; (dose: 12.5 mg/kg/injection, schedule: Q01DX009 (ip), vehicle: saline with Tween-80) 163 % of control; under setting [5], 181 % of control; under setting [4], 209 % of control; under setting [1], 235 % of control.

(Values after PubChem BioAssay AID328 (DTP/NCI, 2004).)
